Test results published in ChEMBL document CHEMBL2150953, “Synthesis and antiproliferative activity of helonioside A, 3',4',6'-tri-O-feruloylsucrose, lapathoside C and their analogs” (Eur J Med Chem, 2012).

Experiments:
Type in all cases: functional, cell-based
HeLa [1] = assay: Cytotoxicity against human HeLa cells after 48 hrs by MTS assay
HeLa [2] = assay: Cytotoxicity against human HeLa cells after 24 hrs by MTS assay
HeLa [3] = assay: Cytotoxicity against human HeLa cells by MTS assay; conditions: TDE = time-dependent effect

SMILES | IC50 (HeLa [1]) [µM] | IC50 (HeLa [2]) [µM] | Activity (HeLa [3])
COc1cc(/C=C/C(=O)OC[C@H]2O[C@H](O[C@]3(CO)O[C@H](COC(=O)/C=C/c4ccc(OC(C)=O)cc4)[C@@H](O)[C@@H]3OC(=O)/C=C/c3ccc(OC(C)=O)cc3)[C@H](O)[C@@H](O)[C@@H]2O)ccc1OC(C)=O | > 100 |  | 
COc1cc(/C=C/C(=O)OC[C@H]2O[C@H](O[C@]3(CO)O[C@H](COC(=O)/C=C/c4ccc(O)cc4)[C@@H](O)[C@@H]3OC(=O)/C=C/c3ccc(O)cc3)[C@H](O)[C@@H](O)[C@@H]2O)ccc1O [LAPATHOSIDE C] | 12.6 |  | 
COc1cc(/C=C/C(=O)OC[C@H]2O[C@@](CO)(O[C@H]3O[C@H](CO)[C@@H](O)[C@H](OC(=O)/C=C/c4ccc(O)c(OC)c4)[C@H]3O)[C@@H](OC(=O)/C=C/c3ccc(O)c(OC)c3)[C@@H]2OC(=O)/C=C/c2ccc(O)c(OC)c2)ccc1O | 1.62 | 7.9 | tde
COc1cc(/C=C/C(=O)OC[C@H]2O[C@]3(COC(C)(C)O[C@H]4[C@H](O[C@@H]5COC(C)(C)O[C@H]5[C@@H]4O)O3)[C@@H](OC(=O)/C=C/c3ccc(OC(C)=O)c(OC)c3)[C@@H]2OC(=O)/C=C/c2ccc(OC(C)=O)c(OC)c2)ccc1OC(C)=O | 0.16 |  | 
COc1cc(/C=C/C(=O)OC[C@H]2O[C@@](CO)(O[C@H]3O[C@H](CO)[C@@H](O)[C@H](O)[C@H]3O)[C@@H](OC(=O)/C=C/c3ccc(OC(C)=O)c(OC)c3)[C@@H]2OC(=O)/C=C/c2ccc(OC(C)=O)c(OC)c2)ccc1OC(C)=O | 1.7 |  | 
COc1cc(/C=C/C(=O)OC[C@H]2O[C@H](O[C@]3(CO)O[C@H](COC(=O)/C=C/c4ccc(OC(C)=O)cc4)[C@@H](O)[C@@H]3OC(=O)/C=C/c3ccc(OC(C)=O)cc3)[C@H](O)[C@@H](OC(=O)/C=C/c3ccc(OC(C)=O)c(OC)c3)[C@@H]2O)ccc1OC(C)=O | 3.14 |  | 
COc1cc(/C=C/C(=O)OC[C@H]2O[C@H](O[C@]3(CO)O[C@H](COC(=O)/C=C/c4ccc(O)cc4)[C@@H](O)[C@@H]3OC(=O)/C=C/c3ccc(O)cc3)[C@H](O)[C@@H](OC(=O)/C=C/c3ccc(O)c(OC)c3)[C@@H]2O)ccc1O | 1.67 |  | 
CC(=O)Oc1ccc(/C=C/C(=O)OC[C@H]2O[C@@](CO)(O[C@H]3O[C@H](COC(=O)/C=C/c4ccc(OC(C)=O)cc4)[C@@H](O)[C@H](OC(=O)/C=C/c4ccc(OC(C)=O)cc4)[C@H]3O)[C@@H](OC(=O)/C=C/c3ccc(OC(C)=O)cc3)[C@@H]2O)cc1 | 1.86 |  | 
CC[C@@]1(O)C(=O)OCc2c1cc1n(c2=O)Cc2cc3ccccc3nc2-1 [CAMPTOTHECIN] | 0.4 |  | 
COc1cc(/C=C/C(=O)OC[C@H]2O[C@]3(COC(C)(C)O[C@H]4[C@H](O[C@@H]5COC(C)(C)O[C@H]5[C@@H]4O)O3)[C@@H](O)[C@@H]2O)ccc1OC(C)=O | > 100 |  | 
COc1cc(/C=C/C(=O)OC[C@H]2O[C@@](CO)(O[C@H]3O[C@H](CO)[C@@H](O)[C@H](O)[C@H]3O)[C@@H](OC(=O)/C=C/c3ccc(OC(C)=O)c(OC)c3)[C@@H]2O)ccc1OC(C)=O | > 100 |  | 
COc1cc(/C=C/C(=O)OC[C@H]2O[C@H](O[C@]3(CO)O[C@H](COC(=O)/C=C/c4ccc(O)cc4)[C@@H](O)[C@@H]3OC(=O)/C=C/c3ccc(O)cc3)[C@H](O)[C@@H](OC(=O)/C=C/c3ccc(O)cc3)[C@@H]2O)ccc1O | 3.12 |  | 
COc1cc(/C=C/C(=O)OC[C@H]2O[C@@](CO)(O[C@H]3O[C@H](CO)[C@@H](O)[C@H](O)[C@H]3O)[C@@H](OC(=O)/C=C/c3ccc(O)c(OC)c3)[C@@H]2OC(=O)/C=C/c2ccc(O)c(OC)c2)ccc1O | 22.4 | 55.1 | tde
COc1cc(/C=C/C(=O)OC[C@H]2O[C@]3(COC(C)(C)O[C@H]4[C@H](O[C@@H]5COC(C)(C)O[C@H]5[C@@H]4O)O3)[C@@H](OC(=O)/C=C/c3ccc(O)c(OC)c3)[C@@H]2OC(=O)/C=C/c2ccc(O)c(OC)c2)ccc1O | 4.2 |  | 
COc1cc(/C=C/C(=O)OC[C@H]2O[C@]3(COC(C)(C)O[C@H]4[C@H](O[C@@H]5COC(C)(C)O[C@H]5[C@@H]4O)O3)[C@@H](OC(=O)/C=C/c3ccc(OC(C)=O)c(OC)c3)[C@@H]2O)ccc1OC(C)=O | 6.01 | 27.9 | tde
COc1cc(/C=C/C(=O)OC[C@H]2O[C@@](CO)(O[C@H]3O[C@H](CO)[C@@H](O)[C@H](O)[C@H]3O)[C@@H](OC(=O)/C=C/c3ccc(O)c(OC)c3)[C@@H]2O)ccc1O [HELONIOSIDE A] | > 100 |  | 
COc1cc(/C=C/C(=O)OC[C@H]2O[C@]3(COC(C)(C)O[C@H]4[C@H](O[C@@H]5COC(C)(C)O[C@H]5[C@@H]4OC(=O)/C=C/c4ccc(OC(C)=O)c(OC)c4)O3)[C@@H](OC(=O)/C=C/c3ccc(OC(C)=O)c(OC)c3)[C@@H]2OC(=O)/C=C/c2ccc(OC(C)=O)c(OC)c2)ccc1OC(C)=O | 3.22 |  | 
O=C(/C=C/c1ccc(O)cc1)OC[C@H]1O[C@@](CO)(O[C@H]2O[C@H](COC(=O)/C=C/c3ccc(O)cc3)[C@@H](O)[C@H](OC(=O)/C=C/c3ccc(O)cc3)[C@H]2O)[C@@H](OC(=O)/C=C/c2ccc(O)cc2)[C@@H]1O | 1.7 |  | 
